The source made the active and inactive calls. The rule behind the calls is not given here.
What was measured:
[1] = test system: MDA-MB-231; experiment: Antiproliferative activity against human MDA-MB-231 cells assessed as inhibition of cell growth measured after 48 hrs by MTT assay; format: functional, cell-based; conditions: MDA-MB-231, 48 h
[2] = test system: MDA-MB-231; experiment: Induction of cell cycle arrest in human MDA-MB-231 cells assessed as accumulation of cells at G2 phase at 20 nM measured after 24 hrs by PI staining by flow cytometric analysis (Rvb =18.1%); format: functional
[3] = test system: MDA-MB-231; experiment: Induction of apoptosis in human MDA-MB-231 cells assessed as increase in activation of caspase level incubated for 8 hrs by Western blotting analysis; format: functional, cell-based; conditions: dose 5-20 nM
[4] = test system: MDA-MB-231; experiment: Induction of apoptosis in human MDA-MB-231 cells assessed as early apoptotic cells at 5 nM incubated for 24 hrs by Annexin V-FITC/PI staining based flow cytometric analysis (reference value: 4.90%); format: functional
[5] = Cytotoxicity against human MCF-10A cells assessed as inhibition in cell growth measured after 48 hrs by MTT assay; format: toxicity, cell-based
[6] = test system: MDA-MB-231; experiment: Induction of apoptosis in human MDA-MB-231 cells assessed as early apoptotic cells at 10 nM incubated for 24 hrs by Annexin V-FITC/PI staining based flow cytometric analysis (reference value: 4.90%); format: functional
[7] = Toxicity in BALB/C mouse xenografted with human MDA-MB-231 cells assessed as lung damage at 2.5 to 5 mg/kg, ip administered every 2 days measured after 3 weeks by H and E staining based analysis; format: organism-based; conditions: in vivo, 504 h, dose 2.5-5 mg/kg
[8] = test system: MDA-MB-231; experiment: Induction of apoptosis in human MDA-MB-231 cells assessed as late apoptotic cells at 10 nM incubated for 24 hrs by Annexin V-FITC/PI staining based flow cytometric analysis (reference value: 4.90%); format: functional
[9] = test system: MDA-MB-231; experiment: Induction of apoptosis in human MDA-MB-231 cells assessed as decrease in mitochondrial CytC level at 5 to 20 nM incubated for 8 hrs by Western blotting analysis; format: functional, cell-based; conditions: dose 5-20 nM
[10] = Selectivity index, ratio of IC50 for cytotoxicity against human L02 cells to IC50 for antiproliferative activity against human MDA-MB-231 cells; format: toxicity, cell-based; conditions: L02 cells versus MDA-MB-231 cells, read-out: Ratio IC50
[11] = test system: MDA-MB-231; experiment: Induction of apoptosis in human MDA-MB-231 cells assessed as increase in cytoplasmic SMAC level at 5 to 20 nM incubated for 8 hrs by Western blotting analysis; format: functional, cell-based; conditions: dose 5-20 nM
[12] = Cytotoxicity against human L02 cells assessed as inhibition in cell growth measured after 48 hrs by MTT assay; format: toxicity, cell-based
[13] = test system: MDA-MB-231; experiment: Induction of apoptosis in human MDA-MB-231 cells assessed as effect on ANT level at 5 to 20 nM incubated for 8 hrs by Western blotting analysis; format: functional, cell-based; conditions: dose 5-20 nM
[14] = test system: MDA-MB-231; experiment: Induction of mitochondrial membrane potential depolarization in human MDA-MB-231 cells assessed as decrease in red fluorescence at 5 to 20 nM incubated for 24 hrs by JC-1 staining based inverted fluorescent microscopic analysis; format: functional, cell-based; conditions: dose 5-20 nM
[15] = test system: MDA-MB-231; experiment: Antitumor activity against human MDA-MB-231 cells xenografted in BALB/C mouse assessed as inhibition of tumor volume at 5 mg/kg, ip administered every 2 days measured after 3 weeks; format: functional; design: scale not given: the % may be the effect or the level left
[16] = test system: MDA-MB-231; experiment: Induction of apoptosis in human MDA-MB-231 cells assessed as increase in Bcl2 level incubated for 8 hrs by Western blotting analysis; format: functional, cell-based; conditions: dose 5-20 nM
[17] = test system: MCF7; experiment: Antiproliferative activity against human MCF7 cells assessed as inhibition of cell growth measured after 48 hrs by MTT assay; format: functional, cell-based; conditions: MCF7, 48 h
[18] = test system: MDA-MB-231; experiment: Induction of cell cycle arrest in human MDA-MB-231 cells assessed as accumulation of cells at S phase at 20 nM measured after 24 hrs by PI staining based flow cytometric analysis (Rvb =24.1%); format: functional
[19] = test system: MDA-MB-231; experiment: Induction of apoptosis in human MDA-MB-231 cells assessed as increase in CypD level incubated for 8 hrs by Western blotting analysis; format: functional, cell-based; conditions: dose 5-20 nM
[20] = test system: MDA-MB-231; experiment: Induction of cell cycle arrest in human MDA-MB-231 cells assessed as accumulation of cells at G1 phase at 20 nM measured after 24 hrs by PI staining based flow cytometric analysis (Rvb =58%); format: functional
[21] = Selectivity index, ratio of IC50 for cytotoxicity against human MCF-10A cells to IC50 for antiproliferative activity against human MDA-MB-231 cells; format: toxicity, cell-based; conditions: MCF-10A cells versus MDA-MB-231 cells, read-out: Ratio IC50
[22] = test system: MDA-MB-231; experiment: Induction of cell cycle arrest in human MDA-MB-231 cells assessed as accumulation of cells at S phase at 10 nM measured after 24 hrs by PI staining based flow cytometric analysis (Rvb =24.1%); format: functional
[23] = test system: MDA-MB-231; experiment: Induction of cell cycle arrest in human MDA-MB-231 cells assessed as accumulation of cells at G1 phase at 10 nM measured after 24 hrs by PI staining based flow cytometric analysis (Rvb =58%); format: functional
[24] = Toxicity in BALB/C mouse xenografted with human MDA-MB-231 cells assessed as liver damage at 2.5 to 5 mg/kg, ip administered every 2 days measured after 3 weeks by H and E staining based analysis; format: organism-based; conditions: in vivo, 504 h, dose 2.5-5 mg/kg
[25] = test system: MDA-MB-231; experiment: Antiproliferative activity against human MDA-MB-231 cells assessed as effect on NO level at 25 uM incubated for 2 hrs; format: functional, cell-based

IC50 [1]: 0.008 µM | IC50 [17]: 2.14 µM
Compound: CCN(CC)c1ccc2cc(C(=O)OCCCCCOc3cc4ccc(=O)oc4cc3OCCCCCCOc3no[n+]([O-])c3S(=O)(=O)c3ccccc3)c(=O)oc2c1
Activity [2]: 21.4% | Activity [3]: Dose-Dependent Effect | Activity [4]: 12.2% | IC50 at 48 h [5]: > 50 µM | Activity [6]: 21.9% | Activity [7]: Non-Toxic | Activity [8]: 30% | Activity [9]: Active | selectivity ratio [10]: 1490 | Activity [11]: Active | IC50 at 48 h [12]: 11.9 µM | Activity [13]: inactive | Activity [14]: Active | Activity [15]: 63.5% | Activity [16]: Dose-Dependent Effect | Activity [18]: 21% | Activity [19]: Dose-Dependent Effect | Activity [20]: 57.9% | selectivity ratio [21]: > 6250 | Activity [22]: 25.9% | Activity [23]: 56% | Activity [24]: Non-Toxic | Activity [25]: Active

From ChEMBL document CHEMBL5321282, “Design, Synthesis, and Biological Evaluation of Esculetin-Furoxan-DEAC Ternary Hybrids for Anti-Triple Negative Breast Cancer” (J Med Chem, 2023)
